Experimental data taken from paper PMC8963254, “Effects of Lysine N-ζ-Methylation in Ultrashort Tetrabasic Lipopeptides (UTBLPs) on the Potentiation of Rifampicin, Novobiocin, and Niclosamide in Gram-Negative Bacteria” (Antibiotics, 2022).
Values after ≈ are worked out from the molar mass of the structure shown. Where two headings read alike, the source gives them in different places. Non-standard residues stand in square brackets, D forms with d. Residues, ends and D or L forms follow the SMILES beside them. *: point of attachment. Lys(Me2) = CN(C)CCCC[C@H](N)C(=O)O; Octanoyl = CCCCCCCC(=O)*

Assays:
A. baumannii ATCC 17978 [1] = assay type: cell-based, Acinetobacter baumannii; conditions: for MICUTBLP: UTBLP alone
Summary of the method: (§1)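 Checkerboard synergy assay: antibiotic and OMP combined at varying concentrations with 5 × 10^5 CFU/mL inoculum (final), 37 °C, 18 h; growth read as turbidity at 590 nm. FICI = sum of FICs (MIC in combination / MIC alone); ≤0.5 synergistic, 0.5–4 additive, >4 antagonistic.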

A. baumannii AB027 = assay type: cell-based, Acinetobacter baumannii; conditions: for MICUTBLP: UTBLP alone
Summary of the method: as §1

A. baumannii 92247 = assay type: cell-based, Acinetobacter baumannii; conditions: for MICUTBLP: UTBLP alone
Summary of the method: as §1

MSSE 81388 [2] = assay type: cell-based, Staphylococcus epidermidis
Summary of the method: as §1

MRSE 61589 [3] = assay type: cell-based, Staphylococcus epidermidis
Summary of the method: as §1

E. faecium ATCC 27270 = assay type: cell-based, Enterococcus faecium; conditions: ATCC 27270, 18 h
Summary of the method: (§2)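 MIC was determined by broth microdilution following CLSI guidelines. Serially varied compound concentrations were incubated with bacterial inoculum at 5 × 10^5 CFU/mL (final) for 18 h at 37 °C. Growth was scored as turbidity by absorbance at 590 nm.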

MSSE 81388 [4] = assay type: cell-based, Staphylococcus epidermidis; conditions: 18 h
Summary of the method: as §2

MRSE 61589 [5] = assay type: cell-based, Staphylococcus epidermidis; conditions: 61589, 18 h
Summary of the method: as §2

K. pneumoniae 113250 = assay type: cell-based, Klebsiella pneumoniae; conditions: for MICUTBLP: UTBLP alone
Summary of the method: as §1

E. coli ATCC 25922 [6] = assay type: cell-based, Escherichia coli; conditions: for MICUTBLP: UTBLP alone
Summary of the method: as §1

E. coli 94474 = assay type: cell-based, Escherichia coli; conditions: for MICUTBLP: UTBLP alone
Summary of the method: as §1

E. coli 94393 = assay type: cell-based, Escherichia coli; conditions: for MICUTBLP: UTBLP alone
Summary of the method: as §1

A. baumannii ATCC 17978 [7] = assay type: cell-based, Acinetobacter baumannii; conditions: ATCC 17978, 18 h
Summary of the method: as §2

E. faecalis ATCC 29212 = assay type: cell-based, Enterococcus faecalis; conditions: ATCC 29212, 18 h
Summary of the method: as §2

E. coli ATCC 25922 [8] = assay type: cell-based, Escherichia coli; conditions: ATCC 25922, 18 h
Summary of the method: as §2

[9] = system: P. aeruginosa PA259-96196; assay: microbe, parasite or virus in culture; assay type: cell-based, Pseudomonas aeruginosa; conditions: PA259-96196, 18 h
Summary of the method: as §2

[10] = system: P. aeruginosa PA262-101856; assay: microbe, parasite or virus in culture; assay type: cell-based, Pseudomonas aeruginosa; conditions: PA262-101856, 18 h
Summary of the method: as §2

[11] = UTBLP in combination with chloramphenicol
[12] = UTBLP in combination with niclosamide
[13] = UTBLP in combination with novobiocin
[14] = UTBLP in combination with rifampicin
[15] = chloramphenicol in combination with the UTBLP
[16] = niclosamide in combination with the UTBLP
[17] = novobiocin in combination with the UTBLP
[18] = rifampicin in combination with the UTBLP
[19] = UTBLP alone, plate with chloramphenicol

`CCCCCCCC(=O)NCCCC[C@H](NC(=O)CCCCCCC)C(=O)N[C@@H](CCCCN(C)C)C(=O)N[C@@H](CCCCN(C)C)C(=O)N[C@@H](CCCCN(C)C)C(=O)N[C@@H](CCCCN(C)C)C(N)=O` [UTBLP 7] (Octanoyl-K(Octanoyl)[Lys(Me2)][Lys(Me2)][Lys(Me2)][Lys(Me2)]-NH2) was tested, and the Interpretation (A. baumannii ATCC 17978 [1]; UTBLP + chloramphenicol) was “Additive (0.5 < x ≤ 4 is additive)”, the Interpretation (A. baumannii ATCC 17978 [1]; UTBLP + niclosamide) was “Synergy (FICI ≤ 0.5 is synergistic)” and the Interpretation (A. baumannii ATCC 17978 [1]; UTBLP + novobiocin) was “Synergy (FICI ≤ 0.5 is synergistic)”. For the same compound, the Interpretation (A. baumannii ATCC 17978 [1]; UTBLP + rifampicin) was “Synergy (FICI ≤ 0.5 is synergistic)”, the MICUTBLP (A. baumannii ATCC 17978 [1]; plate with chloramphenicol) was 128 µg/mL and the MICUTBLP (A. baumannii ATCC 17978 [1]; plate with niclosamide) was 128 µg/mL. For the same compound, the MICUTBLP (A. baumannii ATCC 17978 [1]; plate with novobiocin) was 128 µg/mL, the MICUTBLP (A. baumannii ATCC 17978 [1]; plate with rifampicin) was 128 µg/mL and the “MICUTBLP [MICcombo]” value (A. baumannii ATCC 17978 [1]; [11]) was 0.25 µg/mL. The “MICUTBLP [MICcombo]” value (A. baumannii ATCC 17978 [1]; [12]) was 4 µg/mL, the “MICUTBLP [MICcombo]” value (A. baumannii ATCC 17978 [1]; [13]) was 4 µg/mL and the “MICUTBLP [MICcombo]” value (A. baumannii ATCC 17978 [1]; [14]) was 4 µg/mL. The “MICantibiotic [MICcombo]” value (A. baumannii ATCC 17978 [1]; [15]) was 64 µg/mL, the “MICantibiotic [MICcombo]” value (A. baumannii ATCC 17978 [1]; [16]) was 4 µg/mL and the “MICantibiotic [MICcombo]” value (A. baumannii ATCC 17978 [1]; [17]) was 0.5 µg/mL. The “MICantibiotic [MICcombo]” value (A. baumannii ATCC 17978 [1]; [18]) was 0.125 µg/mL, the Interpretation (A. baumannii AB027; UTBLP + novobiocin) was “Synergy (FICI ≤ 0.5 is synergistic)” and the Interpretation (A. baumannii AB027; UTBLP + rifampicin) was “Synergy (FICI ≤ 0.5 is synergistic)”. For the same compound, the MICUTBLP (A. baumannii AB027; plate with novobiocin) was 128 µg/mL, the MICUTBLP (A. baumannii AB027; plate with rifampicin) was 128 µg/mL and the “MICUTBLP [MICcombo]” value (A. baumannii AB027; [13]) was 4 µg/mL. The “MICUTBLP [MICcombo]” value (A. baumannii AB027; [14]) was 8 µg/mL, the “MICantibiotic [MICcombo]” value (A. baumannii AB027; [17]) was 0.5 µg/mL and the “MICantibiotic [MICcombo]” value (A. baumannii AB027; [18]) was 0.063 µg/mL. For the same compound, the Interpretation (A. baumannii 92247; UTBLP + novobiocin) was “Synergy (FICI ≤ 0.5 is synergistic)”, the Interpretation (A. baumannii 92247; UTBLP + rifampicin) was “Synergy (FICI ≤ 0.5 is synergistic)” and the MICUTBLP (A. baumannii 92247; plate with novobiocin) was 32 µg/mL. For the same compound, the MICUTBLP (A. baumannii 92247; plate with rifampicin) was 32 µg/mL, the “MICUTBLP [MICcombo]” value (A. baumannii 92247; [13]) was 1 µg/mL and the “MICUTBLP [MICcombo]” value (A. baumannii 92247; [14]) was 8 µg/mL. For the same compound, the “MICantibiotic [MICcombo]” value (A. baumannii 92247; [17]) was 0.25 µg/mL, the “MICantibiotic [MICcombo]” value (A. baumannii 92247; [18]) was 0.125 µg/mL and the Interpretation (MSSE 81388 [2]; UTBLP + chloramphenicol) was “Additive (0.5 < x ≤ 4 is additive)”. The MICUTBLP (MSSE 81388 [2]; [19]) was 32 µg/mL, the “MICUTBLP [MICcombo]” value (MSSE 81388 [2]; [11]) was 0.25 µg/mL and the “MICchloramphenicol [MICcombo]” value (MSSE 81388 [2]; [15]) was 4 µg/mL. For the same compound, the Interpretation (MRSE 61589 [3]; UTBLP + chloramphenicol) was “Additive (0.5 < x ≤ 4 is additive)”, the MICUTBLP (MRSE 61589 [3]; [19]) was 32 µg/mL and the “MICUTBLP [MICcombo]” value (MRSE 61589 [3]; [11]) was 0.25 µg/mL. The “MICchloramphenicol [MICcombo]” value (MRSE 61589 [3]; [15]) was 8 µg/mL, the MIC (E. faecium ATCC 27270) was 128 µg/mL (≈ 125 µM) and the MIC (MSSE 81388 [4]) was 32 µg/mL (≈ 31.3 µM). The MIC (MRSE 61589 [5]) was 32 µg/mL (≈ 31.3 µM), the Interpretation (K. pneumoniae 113250; UTBLP + novobiocin) was “Synergy (FICI ≤ 0.5 is synergistic)” and the Interpretation (K. pneumoniae 113250; UTBLP + rifampicin) was “Synergy (FICI ≤ 0.5 is synergistic)”. The MICUTBLP (K. pneumoniae 113250; plate with novobiocin) was > 128 µg/mL, the MICUTBLP (K. pneumoniae 113250; plate with rifampicin) was > 128 µg/mL and the “MICUTBLP [MICcombo]” value (K. pneumoniae 113250; [13]) was 8 µg/mL. For the same compound, the “MICUTBLP [MICcombo]” value (K. pneumoniae 113250; [14]) was 16 µg/mL, the “MICantibiotic [MICcombo]” value (K. pneumoniae 113250; [17]) was 8 µg/mL and the “MICantibiotic [MICcombo]” value (K. pneumoniae 113250; [18]) was 2 µg/mL. For the same compound, the Interpretation (E. coli ATCC 25922 [6]; UTBLP + chloramphenicol) was “Synergy (FICI ≤ 0.5 is synergistic)”, the Interpretation (E. coli ATCC 25922 [6]; UTBLP + niclosamide) was “Synergy (FICI ≤ 0.5 is synergistic)” and the Interpretation (E. coli ATCC 25922 [6]; UTBLP + novobiocin) was “Synergy (FICI ≤ 0.5 is synergistic)”. For the same compound, the Interpretation (E. coli ATCC 25922 [6]; UTBLP + rifampicin) was “Synergy (FICI ≤ 0.5 is synergistic)”, the MICUTBLP (E. coli ATCC 25922 [6]; plate with chloramphenicol) was 64 µg/mL and the MICUTBLP (E. coli ATCC 25922 [6]; plate with niclosamide) was 64 µg/mL. The MICUTBLP (E. coli ATCC 25922 [6]; plate with novobiocin) was 64 µg/mL, the MICUTBLP (E. coli ATCC 25922 [6]; plate with rifampicin) was 64 µg/mL and the “MICUTBLP [MICcombo]” value (E. coli ATCC 25922 [6]; [11]) was 16 µg/mL. For the same compound, the “MICUTBLP [MICcombo]” value (E. coli ATCC 25922 [6]; [12]) was 4 µg/mL, the “MICUTBLP [MICcombo]” value (E. coli ATCC 25922 [6]; [13]) was 2 µg/mL and the “MICUTBLP [MICcombo]” value (E. coli ATCC 25922 [6]; [14]) was 8 µg/mL. The “MICantibiotic [MICcombo]” value (E. coli ATCC 25922 [6]; [15]) was 0.5 µg/mL, the “MICantibiotic [MICcombo]” value (E. coli ATCC 25922 [6]; [16]) was 1 µg/mL and the “MICantibiotic [MICcombo]” value (E. coli ATCC 25922 [6]; [17]) was 2 µg/mL. The “MICantibiotic [MICcombo]” value (E. coli ATCC 25922 [6]; [18]) was 0.125 µg/mL, the Interpretation (E. coli 94474; UTBLP + novobiocin) was “Synergy (FICI ≤ 0.5 is synergistic)” and the Interpretation (E. coli 94474; UTBLP + rifampicin) was “Synergy (FICI ≤ 0.5 is synergistic)”. The MICUTBLP (E. coli 94474; plate with novobiocin) was 128 µg/mL, the MICUTBLP (E. coli 94474; plate with rifampicin) was 128 µg/mL and the “MICUTBLP [MICcombo]” value (E. coli 94474; [13]) was 8 µg/mL. The “MICUTBLP [MICcombo]” value (E. coli 94474; [14]) was 16 µg/mL, the “MICantibiotic [MICcombo]” value (E. coli 94474; [17]) was 16 µg/mL and the “MICantibiotic [MICcombo]” value (E. coli 94474; [18]) was 1 µg/mL. For the same compound, the Interpretation (E. coli 94393; UTBLP + novobiocin) was “Synergy (FICI ≤ 0.5 is synergistic)”, the Interpretation (E. coli 94393; UTBLP + rifampicin) was “Synergy (FICI ≤ 0.5 is synergistic)” and the MICUTBLP (E. coli 94393; plate with novobiocin) was 64 µg/mL. The MICUTBLP (E. coli 94393; plate with rifampicin) was 64 µg/mL, the “MICUTBLP [MICcombo]” value (E. coli 94393; [13]) was 4 µg/mL and the “MICUTBLP [MICcombo]” value (E. coli 94393; [14]) was 8 µg/mL. The “MICantibiotic [MICcombo]” value (E. coli 94393; [17]) was 2 µg/mL, the “MICantibiotic [MICcombo]” value (E. coli 94393; [18]) was 0.5 µg/mL and the MIC (A. baumannii ATCC 17978 [7]) was 128 µg/mL (≈ 125 µM). For the same compound, the MIC (E. faecalis ATCC 29212) was 64 µg/mL (≈ 62.6 µM), the MIC (E. coli ATCC 25922 [8]) was 64 µg/mL (≈ 62.6 µM) and the MIC [9] was > 128 µg/mL. For the same compound, the MIC [10] was > 128 µg/mL.
